Experimental data taken from article PMC3083654, “Cytotoxic and Antimicrobial Activity of Pseudopterosins and seco-Pseudopterosins Isolated from the Octocoral Pseudopterogorgia elisabethae of San Andrés and Providencia Islands (Southwest Caribbean Sea)” (Marine Drugs, 2011).
Like-named read-outs stand apart in the source and are kept apart here.

Legend:
[1] = system: Enterococcus faecalis ATCC 10741; experiment: Antimicrobial microdilution assay, E. faecalis; format: cell-based
Method: (§1) Compounds isolated from P. elisabethae were tested against a panel of microorganisms including the bacteria Staphylococcus aureus ATCC 375, Enterococcus faecalis ATCC 10741, Pseudomonas aeruginosa ATCC 14210 and the yeast Candida albicans ATCC 14035. Bacterial strains were cultured in Luria-Bertani Broth (LB) and C. albicans was cultured in Sabouraud dextrose broth (SD), for 18 h at 37 °C and 220 rpm in a humidified incubator.
(§2) The antimicrobial activity was determined by a microdilution method (IC50) in 96-well microtiter plates using LB media for bacteria and SD media for the yeast seeded liquid media. In all cases, a pre-inoculated dilution was made with fresh broth. A volume of 180 μL of each microorganism suspension was inoculated in each well (10^5 cells/mL) and mixed with 20 μL of treatment solutions. Stock solutions were prepared by dissolving pure compounds and controls in 20% DMSO and storing at 4 °C. Penicillin G (S. aureus), vancomycin (E. faecalis), gentamicin (P. aeruginosa) and nystatin (C. albicans) were used as positive controls and vehicle (DMSO + media) as blank. The final DMSO concentration used for dissolving the extracts was less than 20%. Controls and test compounds (PsG, PsP, PsQ, PsS, PsT, PsU, 3-O-Ac-PsU, seco-PsJ, seco-PsK and IMNGD) were assayed in duplicate for each of the following concentrations: 64.0, 32.0, 16.0, 4.0, 1.0, 0.25 and 0.06 μg/mL.
(§3) Microplates were incubated for 24 h at 37 °C and optical density was recorded using a BioTek Synergy HT microplate reader to measure the absorbance at 600 nm. For each experiment, correction for background absorbance was made by subtracting the value for OD600 after the compounds were added (time 0 h). Percentages of microorganism survival relative to vehicle control wells (wells containing only microorganism and DMSO) were calculated. The IC50 of the controls were also determined in parallel experiments in order to control for the sensitivity of the standard test organisms.
(§4) Data were normalized and analyzed using non-linear regression to elucidate IC50 values from sigmoidal dose-response curves. Comparison between cell lines and microorganisms used extra sum-of-squares F test to evaluate IC50 between data sets. P < 0.05 was considered as indicative of significance using GraphPad Software, Prism V. 5.0.

[2] = system: HCT116 (colorectal cancer); experiment: MTT cytotoxic assay, HCT116; format: cell-based; conditions: Homo sapiens, HCT-116, HCT116, 48 h
Method: (§5) The cell lines HeLa (cervical cancer), PC-3 (prostate cancer), HCT116 (colorectal cancer), MCF-7 (breast cancer) and normal human cell line BJ (skin fibroblasts) were used and maintained in DMEM with 5% of FBS and gentamicin 50 μg/mL. Cultures were held in 75 cm^2 culture flasks at 37 °C, 5% CO2 and 100% relative humidity, changing media at least twice a week.
(§6) Cells were harvested, counted, and transferred into 96 well plates and incubated for 24 h prior to the addition of the test compounds. Test sample solutions (10 μL) at the desired dilutions were added to the wells containing the cells and incubated for 48 h. Microtitration colorimetric method of MTT reduction was used to determine surviving cells at the end of the treatment period.
(§7) A solution of MTT (0.5 mg/mL) was prepared in PBS and 100 μL of this solution was added to each well after the removal of 100 μL of treatment solution. The plates were incubated at 37 °C for 4 h. The solution in each well, containing media, unmetabolized MTT, and dead cells, was removed by suction and 100 μL of DMSO was added to each well. The DMSO was mixed by pipetting and optical density was recorded using a BioTek Synergy HT microplate reader to measure the absorbance at 570 nm. Percentages of cell survival relative to vehicle control wells (wells containing only cells and DMSO) were calculated.
(§8) Stock solutions (5 mg/mL) were prepared by dissolving pure compounds in DMSO and storing at 4 °C. Serial dilutions with culture media were prepared just prior to addition to test plates. The concentration of DMSO in wells was consistent across dilutions at 0.38% v/v. Staurosporine was used as the positive control and vehicle (DMSO + media) as blank. Control and test compounds (PsG, PsP, PsQ, PsS, PsT, PsU, 3-O-Ac-PsU, seco-PsJ, seco-PsK and IMNGD) were assayed in duplicate for each concentration and replicated for each cell line at concentrations of 5000, 1000, 500, 100, 50, 10, 5 and 1 nM for staurosporine and 0.1, 0.5, 1.0, 2.5, 5.0, 7.5, 10.0, and 20.0 μg/mL for compounds.
as §4

[3] = system: BJ (skin fibroblasts); experiment: MTT cytotoxic assay, normal BJ cells; format: cell-based, human; conditions: 48 h
Method: as §5, §6, §7, §8, §4

[4] = system: HeLa (cervical cancer); experiment: MTT cytotoxic assay, HeLa; format: cell-based; conditions: Homo sapiens, 48 h
Method: as §5, §6, §7, §8, §4

[5] = system: MCF-7 (breast cancer); experiment: MTT cytotoxic assay, MCF-7; format: cell-based; conditions: Homo sapiens, MCF7, 48 h
Method: as §5, §6, §7, §8, §4

[6] = system: PC-3 (prostate cancer); experiment: MTT cytotoxic assay, PC-3; format: cell-based; conditions: Homo sapiens, PC-3, 48 h
Method: as §5, §6, §7, §8, §4

[7] = system: Staphylococcus aureus ATCC 375; experiment: Antimicrobial microdilution assay, S. aureus; format: cell-based; conditions: ATCC375, 24 h
Method: as §1, §2, §3, §4

[8] = Enterococcus faecalis, ATCC10741, E. faecalis, microdilution, 24 h, read-out: IC50 ± S.E

| SMILES | IC50 [1, 8] [µM] | IC50 [7] [µM] | GI50 [2] [µM] | GI50 [3] [µM] | GI50 ([3]; listed as 3-O-acetyl-PsU) [µM] | GI50 [4] [µM] | GI50 [5] [µM] | GI50 [6] [µM] | GI50 ([3]; Homo sapiens, Skin fibroblast) [µM] | GI50 ([2]; footnote ** unit) [µM] | GI50 ([3]; Homo sapiens, Skin fibroblast, footnote ** unit) [µM] | GI50 ([4]; footnote ** unit) [µM] | GI50 ([5]; footnote ** unit) [µM] | GI50 ([6]; footnote ** unit) [µM] | IC50 ([1]; Enterococcus faecalis, ATCC10741, 24 h, read-out: IC50 ± S.E, E. faecalis, microdilution, 24 h) [µM] | IC50 ([1]; read-out: IC50 ± S.E, E. faecalis, microdilution, 24 h) [µM] |
| --- | --- | --- | --- | --- | --- | --- | --- | --- | --- | --- | --- | --- | --- | --- | --- | --- |
| CC1(C)S[C@@H]2[C@H](NC(=O)Cc3ccccc3)C(=O)N2[C@H]1C(=O)O [Penicillin G, penicillin G, reference compound] |  | 1.61 ± 0.08 |  |  |  |  |  |  |  |  |  |  |  |  |  |  |
| CC(C)=C[C@@H]1C[C@H](C)[C@H]2CC[C@H](C)c3c(O[C@@H]4O[C@@H](C)[C@@H](O)[C@@H](O)[C@@H]4O)c(O)c(C)c1c32 [PsG] | 3.14 ± 0.22 | 4.48 ± 0.18 | 12 ± 0.36 |  |  | 9.22 ± 0.45 | 9.42 ± 0.43 | 8.83 ± 0.54 | 7.62 ± 0.38 |  |  |  |  |  |  |  |
| CN[C@@H]1C[C@H]2O[C@@](C)([C@@H]1OC)n1c3ccccc3c3c4c(c5c6ccccc6n2c5c31)C(=O)NC4 [Staurosporine, staurosporine, reference compound] |  |  |  |  |  |  |  |  |  | 0.04556 ± 0.00045 | 0.0136 ± 0.00035 | 0.1056 ± 0.00041 | 0.1766 ± 0.00038 | 0.06182 ± 0.00038 |  |  |
| CN[C@H](CC(C)C)C(=O)N[C@H]1C(=O)N[C@@H](CC(N)=O)C(=O)N[C@H]2C(=O)N[C@H]3C(=O)N[C@H](C(=O)N[C@H](C(=O)O)c4cc(O)cc(O)c4-c4cc3ccc4O)[C@H](O)c3ccc(c(Cl)c3)Oc3cc2cc(c3O[C@@H]2O[C@H](CO)[C@@H](O)[C@H](O)[C@H]2O[C@H]2C[C@](C)(N)[C@H](O)[C@H](C)O2)Oc2ccc(cc2Cl)[C@H]1O [Vancomycin, vancomycin, reference compound] |  |  |  |  |  |  |  |  |  |  |  |  |  |  | 4.2 | 4.21 ± 0.11 |
| CC(C)=CCC[C@H](C)[C@H]1CC[C@H](C)c2c1cc(C)c(O[C@@H]1OC[C@@H](O)[C@@H](O)[C@@H]1O)c2O [seco-PsJ] | 4.08 ± 0.19 | 6.52 ± 0.12 | 31.7 ± 0.32 | 15 ± 0.35 |  | 21.1 ± 0.37 | 28 ± 0.51 | 37.2 ± 0.41 | > 10 |  |  |  |  |  |  |  |
| CC(C)=CCC[C@H](C)[C@H]1CC[C@H](C)c2c1cc(C)c(O[C@@H]1O[C@@H](C)[C@@H](O)[C@@H](O)[C@@H]1O)c2O [seco-PsK] | 3.82 ± 0.21 | 4.2 ± 0.16 | 13.3 ± 0.27 |  |  | 15.8 ± 0.18 | 11.5 ± 0.36 | 13.6 ± 0.38 | 8.28 ± 0.29 |  |  |  |  |  |  |  |

Now from value to compound, other results behind:

| IC50 [1, 8] [µM] | IC50 [7] [µM] | SMILES | GI50 [2] [µM] | GI50 [3] [µM] | GI50 ([3]; listed as 3-O-acetyl-PsU) [µM] | GI50 [4] [µM] | GI50 [5] [µM] | GI50 [6] [µM] | GI50 ([3]; Homo sapiens, Skin fibroblast) [µM] | GI50 ([2]; footnote ** unit) [µM] | GI50 ([3]; Homo sapiens, Skin fibroblast, footnote ** unit) [µM] | GI50 ([4]; footnote ** unit) [µM] | GI50 ([5]; footnote ** unit) [µM] | GI50 ([6]; footnote ** unit) [µM] | IC50 ([1]; Enterococcus faecalis, ATCC10741, 24 h, read-out: IC50 ± S.E, E. faecalis, microdilution, 24 h) [µM] | IC50 ([1]; read-out: IC50 ± S.E, E. faecalis, microdilution, 24 h) [µM] |
| --- | --- | --- | --- | --- | --- | --- | --- | --- | --- | --- | --- | --- | --- | --- | --- | --- |
| 7.64 ± 0.16 | 20.23 ± 0.19 | CC(=O)OC1COC(Oc2c(C)c3c4c(c2O)C(C)CCC4C(C)CC3C=C(C)C)C(O)C1OC(C)=O (centres unmarked) [3-O-Ac-PsU] | 20.5 ± 0.48 | 62.03 ± 0.45 | > 10 | 44.61 ± 0.35 | 83.93 ± 0.39 | 26.4 ± 0.31 |  |  |  |  |  |  |  |  |
| 37.35 ± 0.29 | 14.9 ± 0.2 | CC(C)=C[C@@H]1C[C@H](C)[C@H]2CC[C@H](C)c3c(O)c(O[C@@H]4O[C@@H](C)[C@@H](O)[C@@H](O)[C@@H]4O)c(C)c1c32 [PsP] | 17.9 ± 0.45 | 10.4 ± 0.42 |  | 10.3 ± 0.49 | 12.6 ± 0.45 | 13.8 ± 0.58 | > 10 |  |  |  |  |  |  |  |
| 7.38 ± 0.16 | 3.3 ± 0.2 | CC(=O)O[C@H]1[C@@H](O)[C@H](O)[C@H](Oc2c(C)c3c4c(c2O)[C@@H](C)CC[C@@H]4[C@@H](C)C[C@H]3C=C(C)C)O[C@H]1C [PsQ] | 7.66 ± 0.27 |  |  | 5.82 ± 0.33 | 8.44 ± 0.41 | 7.81 ± 0.35 | 4.47 ± 0.31 |  |  |  |  |  |  |  |
| 20.2 ± 0.25 | 3.89 ± 0.23 | CC(=O)O[C@@H]1[C@H](Oc2c(C)c3c4c(c2O)[C@@H](C)CC[C@@H]4[C@@H](C)C[C@H]3C=C(C)C)O[C@@H](C)[C@@H](O)[C@H]1O [PsS] | 33.5 ± 0.33 |  |  | 13.8 ± 0.39 | 26.2 ± 0.45 | 52.05 ± 0.31 |  |  |  |  |  |  |  |  |
| 4.38 ± 0.16 | 5.39 ± 0.25 | CC(C)=C[C@@H]1C[C@H](C)[C@H]2CC[C@H](C)c3c(O)c(O[C@@H]4OC[C@@H](O)[C@@H](O)[C@@H]4O)c(C)c1c32 [PsT] | 24.2 ± 0.42 | 12.9 ± 0.37 |  | 14.6 ± 0.35 | 14.7 ± 0.46 | 22 ± 0.46 | > 10 |  |  |  |  |  |  |  |
| 3.19 ± 0.25 | 2.97 ± 0.17 | CC(=O)OC1COC(Oc2c(C)c3c4c(c2O)C(C)CCC4C(C)CC3C=C(C)C)C(O)C1O (centres unmarked) [PsU] | 23.4 ± 0.4 |  |  | 15.6 ± 0.32 | 26.5 ± 0.46 | 24.8 ± 0.34 | 9.35 ± 0.34 |  |  |  |  |  |  |  |
